Structures can show the parent of a compound that is named as a salt.
Tests used:
rabbit retina = test: Melatonin agonist or antagonist activity in rabbit retina; assay type: cell-based; conditions: Oryctolagus cuniculus, method of Dubocovich
Text: (§1) The results obtained for particular compounds according to the present invention are as follows:

[1] = biological target: melatonin receptors in chicken retinal membranes; test: Binding to melatonin receptors in chicken retinal membranes; conditions: method of Dubocovich and Takahashi, read-out: Chicken retina Ki
Text: as §1

Row | SMILES | IC50 (rabbit retina) [nM] | Ki [1] [nM]
1 | CC(=O)NCCN1CCc2ccc3c(c21)CCCO3 [Example 2, N-[2-(2,3,8,9-Tetrahydro-7H-pyrano[2,3-g]indol-1-yl)-ethyl]-acetamide hydrochloride] | 0.95 | 4.92
2 | CC(=O)NCCN1CCc2ccc3c(c21)CCO3 [Example 3, N-[2-(2,3,7,8-Tetrahydro-1H-furo[2,3-g]indol-1-yl)ethyl]-acetamide] | 0.04 | 0.42
3 | O=C(NCCN1CCc2ccc3c(c21)CCO3)C1CC1 [Example 6, Cyclopropanecarboxylic acid [2-(2,3,7,8-tetrahydro-1H-furo[2,3-g]indol-1-yl)-ethyl]-amide] | 0.2 | 1.68
4 | CC(=O)NCCN1CCc2cc(Cl)c3c(c21)CCO3 [Example 5, N-[2-(5-Chloro-2,3,7,8-tetrahydro-1H-furo[2,3-g]indol-1-yl)-ethyl]-acetamide] |  | 3.21

Source: patent US5633276A, “Indoline derivatives, method of preparation and use” (Glaxo Group Limited, priority 1993, dated 1997)
